Measured values: ChEMBL document CHEMBL5465560, “Selectivity Literature for EUbOPEN Chemogenomic Library” (2024)
Values belong to the compound of their own block, whether it stands above or below them.

Legend:
[1] = biological target: RAF proto-oncogene serine/threonine-protein kinase (Homo sapiens) (UniProt P04049); experiment: Selectivity interaction (Kinase panel (Eurofins)) EUB0001564a RAF1; settings: at 1 µM
[2] = biological target: T1, Serine/threonine-protein kinase STK11 (Homo sapiens) (UniProt Q15831); settings: at 10 µM
T1 sequence (whole entry): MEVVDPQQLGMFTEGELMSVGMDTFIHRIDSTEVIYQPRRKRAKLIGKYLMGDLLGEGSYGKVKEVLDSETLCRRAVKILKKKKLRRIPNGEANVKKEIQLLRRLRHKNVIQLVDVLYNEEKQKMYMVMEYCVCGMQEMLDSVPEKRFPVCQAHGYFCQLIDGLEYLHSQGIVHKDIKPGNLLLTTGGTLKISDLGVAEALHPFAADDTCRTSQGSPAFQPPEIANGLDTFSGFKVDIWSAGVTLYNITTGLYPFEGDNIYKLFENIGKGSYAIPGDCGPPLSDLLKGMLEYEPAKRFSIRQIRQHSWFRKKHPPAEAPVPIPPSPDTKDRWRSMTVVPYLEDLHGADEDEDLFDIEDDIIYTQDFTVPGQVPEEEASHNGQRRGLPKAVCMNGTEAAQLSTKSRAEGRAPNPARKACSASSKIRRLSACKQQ

[3] = biological target: Serine/threonine-protein kinase mTOR (Homo sapiens, UniProt P42345); experiment: Selectivity interaction (KinomeScan (DiscoverX)) EUB0000655a MTOR; settings: at 10 µM
[4] = biological target: T2, Serine/threonine-protein kinase Nek11 (Homo sapiens) (UniProt Q8NG66); experiment: Selectivity interaction (KinomeScan (DiscoverX)) EUB0001079a NEK11; settings: at 1 µM
T2 sequence (whole entry): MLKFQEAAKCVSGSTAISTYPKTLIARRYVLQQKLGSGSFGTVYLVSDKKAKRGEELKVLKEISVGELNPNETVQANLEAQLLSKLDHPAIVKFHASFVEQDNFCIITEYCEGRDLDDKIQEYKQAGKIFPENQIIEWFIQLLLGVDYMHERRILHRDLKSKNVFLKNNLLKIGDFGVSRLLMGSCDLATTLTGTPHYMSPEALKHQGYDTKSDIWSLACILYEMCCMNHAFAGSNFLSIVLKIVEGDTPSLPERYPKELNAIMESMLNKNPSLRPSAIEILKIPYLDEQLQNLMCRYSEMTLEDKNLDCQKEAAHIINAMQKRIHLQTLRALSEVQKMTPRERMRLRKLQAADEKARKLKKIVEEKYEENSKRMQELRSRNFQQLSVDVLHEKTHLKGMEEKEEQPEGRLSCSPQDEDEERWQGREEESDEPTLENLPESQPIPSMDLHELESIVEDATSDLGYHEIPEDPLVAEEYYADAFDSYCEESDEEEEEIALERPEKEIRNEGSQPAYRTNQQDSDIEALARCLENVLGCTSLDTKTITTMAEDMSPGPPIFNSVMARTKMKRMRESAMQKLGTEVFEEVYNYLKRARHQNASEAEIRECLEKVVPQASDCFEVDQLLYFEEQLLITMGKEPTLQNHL

[5] = biological target: STE20-like serine/threonine-protein kinase (Homo sapiens, UniProt Q9H2G2); experiment: Selectivity interaction (Kinase panel (KiNativ target engagement assay in Jurkat cells)) EUB0001635a SLK; type: cell-based; settings: Selectivity number of off-targets 0.0, Selectivity number of targets 233.0, Source Knowledge https://www.sciencedirect.com/science/article/pii/S2451945619300674?via%3Dihub, at 1 µM
[6] = biological target: T3, Interleukin-1 receptor-associated kinase 3 (Homo sapiens) (UniProt Q9Y616); experiment: Selectivity interaction (ActivX KiNativ screen (kinase selectivity in THP-1 cell lysates)) EUB0000639a IRAK3; type: subcellular; settings: lysate, at 5 µM
T3 sequence (whole entry): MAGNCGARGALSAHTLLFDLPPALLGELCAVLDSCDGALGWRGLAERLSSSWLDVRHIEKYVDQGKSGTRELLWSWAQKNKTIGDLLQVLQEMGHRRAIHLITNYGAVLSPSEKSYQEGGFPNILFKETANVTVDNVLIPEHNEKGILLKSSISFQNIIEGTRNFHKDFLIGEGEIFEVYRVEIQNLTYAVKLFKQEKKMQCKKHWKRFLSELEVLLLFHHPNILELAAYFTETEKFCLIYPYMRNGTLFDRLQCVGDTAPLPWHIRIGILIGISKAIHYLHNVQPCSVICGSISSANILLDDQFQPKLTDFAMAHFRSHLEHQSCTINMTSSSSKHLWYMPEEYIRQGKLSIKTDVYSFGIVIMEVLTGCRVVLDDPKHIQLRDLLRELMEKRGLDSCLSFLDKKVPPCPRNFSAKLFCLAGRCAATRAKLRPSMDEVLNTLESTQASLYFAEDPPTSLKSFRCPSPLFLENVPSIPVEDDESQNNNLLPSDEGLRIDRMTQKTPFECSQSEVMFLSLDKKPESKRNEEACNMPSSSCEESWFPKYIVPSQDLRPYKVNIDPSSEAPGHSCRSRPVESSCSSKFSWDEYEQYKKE

[7] = biological target: T4, Muscle, skeletal receptor tyrosine-protein kinase (Homo sapiens) (UniProt O15146); experiment: Selectivity interaction (ProQinase) EUB0000171b MUSK
T4 sequence (whole entry): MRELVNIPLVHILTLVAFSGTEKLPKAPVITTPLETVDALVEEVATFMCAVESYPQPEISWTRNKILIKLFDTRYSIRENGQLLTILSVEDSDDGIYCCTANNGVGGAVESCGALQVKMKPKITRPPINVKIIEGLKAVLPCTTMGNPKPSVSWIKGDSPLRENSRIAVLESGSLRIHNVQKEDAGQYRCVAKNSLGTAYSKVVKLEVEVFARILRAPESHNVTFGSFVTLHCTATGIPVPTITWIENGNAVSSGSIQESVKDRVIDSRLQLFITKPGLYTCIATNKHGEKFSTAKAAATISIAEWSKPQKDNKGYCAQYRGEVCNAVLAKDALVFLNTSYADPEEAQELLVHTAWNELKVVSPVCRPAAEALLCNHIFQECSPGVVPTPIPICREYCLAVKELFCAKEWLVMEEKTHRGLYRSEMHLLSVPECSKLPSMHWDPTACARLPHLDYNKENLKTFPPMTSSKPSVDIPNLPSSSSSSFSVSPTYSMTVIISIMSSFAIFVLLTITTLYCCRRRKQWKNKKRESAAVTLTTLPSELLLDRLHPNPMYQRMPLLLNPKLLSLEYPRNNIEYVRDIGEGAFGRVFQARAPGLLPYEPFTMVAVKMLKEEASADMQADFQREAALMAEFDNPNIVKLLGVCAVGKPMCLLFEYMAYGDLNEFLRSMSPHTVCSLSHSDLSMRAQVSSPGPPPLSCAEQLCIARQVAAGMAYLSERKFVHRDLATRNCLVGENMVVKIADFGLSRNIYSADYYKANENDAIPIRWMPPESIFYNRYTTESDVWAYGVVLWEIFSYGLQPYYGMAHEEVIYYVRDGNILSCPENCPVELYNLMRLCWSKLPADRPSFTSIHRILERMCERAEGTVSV

[8] = Selectivity interaction (KinomeScan (DiscoverX)) EUB0000092b CDK2H; settings: at 10 µM

Sequence of RAF proto-oncogene serine/threonine-protein kinase (Homo sapiens) (P04049 whole entry): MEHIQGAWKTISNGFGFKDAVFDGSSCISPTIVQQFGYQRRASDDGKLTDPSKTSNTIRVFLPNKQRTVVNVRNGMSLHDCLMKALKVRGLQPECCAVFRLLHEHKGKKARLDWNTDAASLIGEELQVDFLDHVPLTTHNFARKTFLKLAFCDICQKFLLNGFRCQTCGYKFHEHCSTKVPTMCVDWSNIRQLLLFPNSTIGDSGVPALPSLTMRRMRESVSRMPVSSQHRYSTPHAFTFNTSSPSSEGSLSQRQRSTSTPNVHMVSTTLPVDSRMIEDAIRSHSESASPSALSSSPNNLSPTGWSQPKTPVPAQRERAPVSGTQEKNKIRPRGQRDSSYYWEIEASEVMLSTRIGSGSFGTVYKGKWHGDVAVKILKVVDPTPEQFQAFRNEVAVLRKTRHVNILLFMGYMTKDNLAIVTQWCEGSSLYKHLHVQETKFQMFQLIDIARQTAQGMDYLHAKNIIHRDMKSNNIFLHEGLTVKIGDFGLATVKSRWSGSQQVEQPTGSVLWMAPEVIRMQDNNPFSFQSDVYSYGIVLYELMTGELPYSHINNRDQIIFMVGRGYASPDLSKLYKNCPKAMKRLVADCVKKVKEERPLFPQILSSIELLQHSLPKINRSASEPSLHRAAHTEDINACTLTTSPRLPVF
Sequence of STE20-like serine/threonine-protein kinase (Q9H2G2 whole entry, looked up): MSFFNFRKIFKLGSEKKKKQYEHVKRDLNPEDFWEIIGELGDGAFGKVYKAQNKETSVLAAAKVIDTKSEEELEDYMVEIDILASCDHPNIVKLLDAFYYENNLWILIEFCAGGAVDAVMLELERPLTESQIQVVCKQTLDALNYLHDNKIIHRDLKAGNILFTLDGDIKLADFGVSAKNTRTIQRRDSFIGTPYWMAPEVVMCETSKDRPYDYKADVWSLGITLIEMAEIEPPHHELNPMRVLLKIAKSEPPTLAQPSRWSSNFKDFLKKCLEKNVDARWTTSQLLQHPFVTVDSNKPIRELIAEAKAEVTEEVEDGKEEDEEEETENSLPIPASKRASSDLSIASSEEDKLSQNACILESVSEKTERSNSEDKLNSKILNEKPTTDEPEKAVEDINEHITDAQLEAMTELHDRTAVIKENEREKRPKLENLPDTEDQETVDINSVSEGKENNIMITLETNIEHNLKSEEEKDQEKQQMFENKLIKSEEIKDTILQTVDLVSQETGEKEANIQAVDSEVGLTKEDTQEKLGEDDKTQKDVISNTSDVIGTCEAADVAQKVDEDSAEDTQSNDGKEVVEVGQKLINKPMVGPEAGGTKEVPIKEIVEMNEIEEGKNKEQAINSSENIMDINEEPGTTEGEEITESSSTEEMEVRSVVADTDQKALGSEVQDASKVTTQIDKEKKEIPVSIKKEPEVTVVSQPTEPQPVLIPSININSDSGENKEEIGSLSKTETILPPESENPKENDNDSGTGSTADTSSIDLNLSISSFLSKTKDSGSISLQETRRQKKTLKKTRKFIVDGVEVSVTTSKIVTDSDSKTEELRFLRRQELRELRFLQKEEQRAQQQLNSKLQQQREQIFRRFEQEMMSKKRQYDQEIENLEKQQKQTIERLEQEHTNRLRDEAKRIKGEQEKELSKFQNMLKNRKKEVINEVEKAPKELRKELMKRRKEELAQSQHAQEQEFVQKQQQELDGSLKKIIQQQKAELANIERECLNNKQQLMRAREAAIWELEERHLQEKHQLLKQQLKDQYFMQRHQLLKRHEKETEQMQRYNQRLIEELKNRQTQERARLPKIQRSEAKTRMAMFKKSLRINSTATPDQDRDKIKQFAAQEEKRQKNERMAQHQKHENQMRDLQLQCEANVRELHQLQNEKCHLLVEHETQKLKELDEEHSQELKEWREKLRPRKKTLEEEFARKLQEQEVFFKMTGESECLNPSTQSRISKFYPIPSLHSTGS

% of inhibition [1]: 36%
SMILES: CC[C@@H](Nc1c(C#N)c(-c2ccc(-c3cccc(C)c3F)cc2)nc2cnccc12)C(=O)O [BAY-091]

% of control [2]: 100%
SMILES: CCN(CC)CCCCNc1ncc2cc(-c3cc(OC)cc(OC)c3)c(NC(=O)NC(C)(C)C)nc2n1

% of inhibition [6]: 94.3%
SMILES: CC[C@@H]1[C@H](F)C(=O)N[C@@H]1COc1nccc2cc(C(N)=O)c(OC)cc12 [ZIMLOVISERTIB]

% of control ([7]; at 1 µM): 74%
% of control ([7]; at 5 µM): 31%
SMILES: C=CC(=O)Nc1cccc(C(=O)Nc2ccc(Nc3cc(-c4[nH]c(SC)nc4C)ccn3)cc2)c1

The next lines start with the compound.

SMILES: CN(C)CCOc1ccc(-c2nc(-c3ccncc3)c(-c3ccc4c(c3)CC/C4=N\O)[nH]2)cc1
% of control [3]: 75%

SMILES: Nc1cnc(N2CCc3cc(S(=O)(=O)Nc4c(F)cc(Cl)cc4F)cc(N4CCCC4=O)c32)nc1 [TP-020n]
% of control [4]: 100%

SMILES: C=CC(=O)Nc1ccc(C(=O)Nc2[nH]nc3c2CN(C(=O)N[C@H](CN(C)C)c2ccccc2)C3(C)C)cc1
% of engagement [5]: -7.6%

SMILES: CCC(=O)N1CCN(c2ccc(-n3c(=O)ccc4cnc5ccc(-c6cnc7ccccc7c6)cc5c43)cc2C(F)(F)F)CC1
% of control [8]: 97%
